These results are taken from article PMC3683042, “Solution Structure and Peptide Binding of the PTB Domain from the AIDA1 Postsynaptic Signaling Scaffolding Protein” (PLoS ONE, 2013).

Residues, ends and D or L forms follow the SMILES beside them. *: point of attachment. FITC = O=C1OC2(c3ccc(O)cc3Oc3cc(O)ccc32)c2ccc(NC(=S)*)cc21

The target in assay [1] is T1, AIDA1 PTB domain, PTB5M mutant (Homo sapiens, UniProt Q7Z6G8, F1057A/F1065A/Y1047A/Y1111A/Y1172A).
T1 construct: A gene fragment encoding the PTB domain (aa. 1043–1195) of human AIDA1b; 6xHis; made in house; host or cells: gene synthesised by DNA2.0 in pJExpress401
T1 sequence (Q7Z6G8 1043-1195 Y1047A/F1057A/F1065A/Y1111A/Y1172A): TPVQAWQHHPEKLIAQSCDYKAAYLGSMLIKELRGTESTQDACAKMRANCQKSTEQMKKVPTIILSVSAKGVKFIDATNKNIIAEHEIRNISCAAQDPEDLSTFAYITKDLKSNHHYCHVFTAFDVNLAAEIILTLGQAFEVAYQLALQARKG
Put plainly: Fluorescence anisotropy binding of FITC-labeled APP peptides to PTB5M. The settings on record: FITC-labeled peptide, 25°C, buffer similar to NMR (20 mM Na-phosphate, pH 7.8, 0.15 M NaCl), two-state fit, n = 4 (APP-32), n = 2 (APP-17), n = 1 (APP-17{pY}). An excerpt: (§1) A gene fragment encoding the PTB domain (aa. 1043–1195) of human AIDA1b was PCR amplified with NdeI and EcoRI restriction sites and was subsequently inserted into pET28a (Novagen). The expressed protein contained an amino terminal 6xHis tag and intervening thrombin site. Other PTB domain fragments that lacked either the N-terminal 6xHis tag or the entire affinity tag along with 16 additional unstructured residues were also as […] as the fragment chosen for this study. To align the PTB domain described in this study with numerous AIDA1 isoforms, S1 in the PTB domain structure corresponds to S1045 in AIDA1b, the longest isoform. A one-liter fermentation in a minimal medium containing 1 g of ^15NH4Cl and 4 g of ^13C-glucose was sufficient to produce 5–10 mg of purified protein. […]
(§2) Fluorescein isothiocyanate (FITC) labeled peptides spanning portions of APP were produced and purified by CanPeptide (Montreal, QC) for fluorescence anisotropy based binding studies at 25°C using an Agilent Eclipse spectrophotometer equipped with a manual polarizer accessory. […] Anisotropy was calculated from the relationship (Iparallel–GIperp)/(Iparallel[…]) and normalized with the blank experiment. The equilibrium dissociation constant (KD) was calculated by direct fitting the titration curves with a standard two-state relationship using proFit 6.2 (Quantsoft).

Assay [2] has as its target T2, AIDA1 PTB domain, Y70A mutant (PTBY70A) (Homo sapiens, UniProt Q7Z6G8, Y1111A).
T2 construct: A gene fragment encoding the PTB domain (aa. 1043–1195) of human AIDA1b; 6xHis tag with thrombin site (N); made in house; host or cells: pET28a vector
T2 sequence (Q7Z6G8 1040-1192 Y1111A): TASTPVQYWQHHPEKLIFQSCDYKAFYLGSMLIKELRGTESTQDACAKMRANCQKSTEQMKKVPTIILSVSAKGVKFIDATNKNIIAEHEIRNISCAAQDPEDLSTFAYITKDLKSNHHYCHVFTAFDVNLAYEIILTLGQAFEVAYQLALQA
Put plainly: Fluorescence anisotropy binding of FITC-labeled APP peptides to PTBY70A. The settings on record: FITC-labeled peptide, 25°C, buffer similar to NMR (20 mM Na-phosphate, pH 7.8, 0.15 M NaCl), two-state fit, n = 4 (APP-32), n = 2 (APP-17).
Source text: as §1, §2

Assay [3] addresses X11 PTB domain. The settings on record: Discussion; read-out: dissociation constant, X11 (given jointly for X11/Fe65); cited from earlier work. An excerpt:
(§3) This difference in affinity may be advantageous for AIDA1 to participate in signaling contexts beyond APP. From a peptide array study, we determined that the consensus sequence is less stringent NxxY versus NPxY for others in the same Dab-like class of PTB domains. Thus, at the neuronal synapse, AIDA1 could serve as a versatile collator and ...

Assay [4] has as its target AIDA1 PTB domain. In words: Binding of APP peptides to the AIDA1 PTB domain. Also noted: species or system human.
Source text: A gene fragment encoding the PTB domain (aa. 1043–1195) of human AIDA1b was PCR amplified with NdeI and EcoRI restriction sites and was subsequently inserted into pET28a (Novagen). The expressed protein contained an amino terminal 6xHis tag and intervening thrombin site. Other PTB domain fragments that lacked either the N-terminal 6xHis tag or the entire affinity tag along with 16 additional unstructured residues were also as […] as the fragment chosen for this study. To align the PTB domain described in this study with numerous AIDA1 isoforms, S1 in the PTB domain structure corresponds to S1045 in AIDA1b, the longest isoform. A one-liter fermentation in a minimal medium containing 1 g of ^15NH4Cl and 4 g of ^13C-glucose was sufficient to produce 5–10 mg of purified protein. Purification was achieved by Nickel-NTA affinity chromatography (Qiagen) and gel filtration chromatography on a S-100 HR 16/60 size exclusion column (GE Biosciences). Final buffer conditions were 20 mM Na-phosphate, pH 7.8, 0.15 M NaCl, 0.05% (w/v) NaN3. […] A 6xHis tagged PTB domain variant containing all five substitutions (PTB5M) was produced by DNA2.0 (Menlo Park, CA) by direct gene synthesis in the expression vector, pJExpress401 (T5 promoter plus kanamycin resistance). A 6xHis-tagged, APP-peptide ([…]) fused to the amino terminus of the AIDA1 PTB5M mutant with an intervening thrombin site was also synthesized by DNA2.0 in pJExpress401.
as §2, with “accessory. Buffer conditions were similar to those used for NMR spectroscopy.” for “accessory.”

The target of assay [5] is Fe65 PTB2 domain. To be noted: Discussion; read-out: dissociation constant, Fe65 (given jointly for X11/Fe65); cited from earlier work.
Source text: as §3, with “One threonine (T668) in APP located in this extended region is susceptible to phosphorylation and acts as a switch that repartitions the cis and trans states of the adjacent proline (P669) that, in turn, affects the ability of Fe65 to engage its ligand. […] This” for “This”

Regarding `CSCC[C@H](NC(=O)[C@H](CCC(N)=O)NC(=O)[C@H](CCC(=O)O)NC(=O)[C@H](Cc1ccccc1)NC(=O)[C@H](Cc1ccccc1)NC(=O)[C@H](CCCCN)NC(=O)[C@H](Cc1ccc(O)cc1)NC(=O)[C@@H](NC(=O)[C@@H]1CCCN1C(=O)[C@H](CC(N)=O)NC(=O)[C@H](CCC(=O)O)NC(=O)[C@H](Cc1ccc(O)cc1)NC(=O)CNC(=O)[C@H](CC(N)=O)NC(=O)[C@H](CCC(N)=O)NC(=O)[C@H](CCC(N)=O)NC(=O)[C@H](CCSC)NC(=O)[C@H](CCCCN)NC(=O)[C@H](CO)NC(=O)[C@H](CC(C)C)NC(=O)[C@H](Cc1c[nH]cn1)NC(=O)[C@H](CCCNC(=N)N)NC(=O)[C@H](CCC(=O)O)NC(=O)[C@H](CCC(=O)O)NC(=O)[C@@H]1CCCN1C(=O)[C@@H](NC(=O)[C@@H](NC(=O)[C@H](C)NC(=O)[C@H](C)NC(=O)[C@H](CC(=O)O)NC(=O)CNC(=O)CN)C(C)C)[C@@H](C)O)[C@@H](C)O)C(=O)N[C@@H](CCC(N)=O)C(=O)N[C@@H](CC(N)=O)C(=O)O` [APP-32] (H-GGDAAVTPEERHLSKMQQNGYENPTYKFFEQMQN-OH), the figures for the Kd in assay [1] and in assay [2] were 14.8 ± 1 µM and 13.3 ± 1.5 µM, respectively.
Regarding “amyloid protein precursor (APP): amyloid protein precursor (APP)”, the values for the Kd in assay [3], in assay [4] (approximate value of text/abstract) and in assay [5] were less than 1 µM, roughly 10 µM and less than 1 µM, respectively. Also, the “affinity of the AIDA1 PTB domain (in words)” value in assay [4] (relative to similar APP binding proteins such as X11/Fe65) is reported as “moderate”.
As for `CSCC[C@H](NC(=O)[C@H](CCC(N)=O)NC(=O)[C@H](CCC(=O)O)NC(=O)[C@H](Cc1ccccc1)NC(=O)[C@H](Cc1ccccc1)NC(=O)[C@H](CCCCN)NC(=O)[C@H](Cc1ccc(O)cc1)NC(=O)[C@@H](NC(=O)[C@@H]1CCCN1C(=O)[C@H](CC(N)=O)NC(=O)[C@H](CCC(=O)O)NC(=O)[C@H](Cc1ccc(O)cc1)NC(=O)CNC(=O)[C@H](CC(N)=O)NC(=O)[C@H](CCC(N)=O)NC(=O)CNC(=O)CNC(=S)Nc1ccc2c(c1)C(=O)OC21c2ccc(O)cc2Oc2cc(O)ccc21)[C@@H](C)O)C(=O)N[C@@H](CCC(N)=O)C(=O)N[C@@H](CC(N)=O)C(=O)O` [APP-17] ({FITC}-GGQNGYENPTYKFFEQMQN-OH; C-terminus assumed), the “binding affinity to the AIDA1 PTB domain, long versus short APP peptide” value in assay [4] (fluorescence anisotropy titration, in words) was “no differences in binding affinity”.
